Results: US10189856B2 (Adverio Pharma GMBH, priority 2010, dated 2019)
“Also recorded” adds a separate entry of the source.

Assays:
[1] = tested on: Bleomycin-induced skin fibrosis; assay: Bleomycin-induced skin fibrosis, preventive dose-regimen (Example A); format: in vivo, mice; settings: for Collagen content / Myofibroblast count / Dermal thickness: Table 2; for Collagen content: bleomycin + vehicle 1.56; for Myofibroblast count: bleomycin + vehicle 3.86; for Dermal thickness: vs vehicle-treated control, bleomycin + vehicle 1.71; for dermal thickness, hydroxyproline content of the skin and the number of dermal myofibroblasts: result in words, bleomycin-induced SSc in mice, preventive dose-regimen
Method: Local skin fibrosis was induced in 6-week-old, pathogen-free, female DBA/2 mice (Charles River, Sulzfeld, Germany) by repeated (every other day) subcutaneous injections of bleomycin (0.5 mg/ml in saline) in a defined area of the upper back. Control mice were injected in the same manner with saline only and served as reference. For all groups the injection volume was 100 μl. Concomitant to bleomycin treatment, the mice were treated orally with test drug or vehicle. Mice were treated a) with vehicle b) with 1 mg/kg compound of formula 27, and c) with 3 mg/kg compound of formula 27, twice a day via gavage for 21 days. After this 3 weeks treatment period, the animals were sacrificed and skin samples were obtained for analysis.
The injected skin areas were fixed in 4% formalin and embedded in paraffin. Histological sections were stained with hematoxylin and eosin for the determination of dermal thickness. The dermal thickness was determined by measuring the largest distance between the epidermal-dermal junction and the dermal-subcutaneous fat junction. The measurements were performed by an examiner blinded to the treatment of the mice.
To analyze the collagen content in skin samples, hydroxyproline assay was performed. After digestion of punch biopsies (Ø 3 mm) in 6M HCl for three hours at 120° C., chloramine T (0.06 M) was added and samples were mixed and incubated for 20 min at room temperature. 3.15 M perchloric acid and 20% p-dimethylaminobenzaldehyde were added and samples were incubated for additional 20 min at 60° C. The absorbance was determined at 557 nm.
The expression of α-smooth muscle actin (αSMA) was analyzed in paraffin embedded sections. After deparaffinization, samples were incubated with 3% bovine serum albumin followed by incubation with 3% H2O2. αSMA positive cells in mouse sections were detected by incubation with monoclonal anti-αSMA antibodies (clone 1A4, Sigma-Aldrich, Steinheim, Germany). Irrelevant isotype antibodies in the same concentration were used for control (Santa Cruz Biotechnology, Santa Cruz, Calif., USA). Antibodies labeled with horseradish peroxidase (Dako, Hamburg, Germany) were used as secondary antibodies. The expression of the NICD and αSMA was visualized with DAB peroxidase substrate solution (Sigma-Aldrich). The number of myofibroblasts was counted from 4 different sections of lesional skin for each mouse by an examiner blinded to the treatment of the mice.

[2] = tested on: conscious mice; assay: Haemodynamic effects in conscious mice with telemetric implants (Example D); format: in vivo; settings: result in words, dosages with antifibrotic properties
Method: The haemodynamic effects of i.e. example, the compound of formula 3, the compound of formula 4, the compound of formula 6 were analyzed in conscious mice. Telemetric implants (DSI®) were used. Signals were received with RMC1-DSI® receiver plates, compiled and analyzed with PONEMAH® physiology platform software.
The mice received either placebo (tylose), 0.3 mg/kg the compound of formula 27, 1 mg/kg the compound of formula 27, 3 mg/kg the compound of formula 27 (FIG. 1), 1.0 mg/kg the compound of formula 3, 3.0 mg/kg the compound of formula 3, 10.0 mg/kg the compound of formula 3 (FIG. 2A,2B), 1.0 mg/kg the compound of formula 4, 3.0 mg/kg the compound of formula 4, 10.0 mg/kg the compound of formula 4 (FIG. 3A/3B), 0.3 mg/kg the compound of formula 6, 1.0 mg/kg the compound of formula 6, 3.0 mg/kg, 10.0 mg/kg the compound of formula 6 (FIG. 4A/4B). The blood pressure and heart rate was monitored before and after application of placebo or the compounds.

[3] = tested on: Bleomycin-induced skin fibrosis; assay: Bleomycin-induced skin fibrosis, preventive dose-regimen (Example A); format: in vivo, mice; settings: Table 2, 0.3 mg/kg
[4] = tested on: established Bleomycin-induced skin fibrosis; assay: Established bleomycin-induced skin fibrosis, therapeutic dose-regimen (Example B); format: in vivo; settings: result in words; bleomycin-induced SSc in mice, therapeutic dose-regimen after established fibrosis
Method: Local skin fibrosis was induced in 6-week-old, pathogen-free, female DBA/2 mice (Charles River, Sulzfeld, Germany) by repeated (every other day) subcutaneous injections of bleomycin (0.5 mg/ml in saline) in a defined area of the upper back. Control mice were injected in the same manner with saline only. For all groups the injection volume was 100 μl. The study comprises 4 arms with • a) mice receiving saline injection for 6 weeks (serving as reference) • b) mice receiving Bleomycin injection for 6 weeks • c) mice receiving Bleomycin injection for 6 weeks and additional treatment with the compound of formula 27 (3 mg/kg) twice a day via gavage for the last 3 weeks • d) mice receiving the first 3 weeks bleomycin injections and the second 3 weeks saline injection.
After 6 weeks the animals were sacrificed and skin samples were obtained for analysis.
(§1) Histological analysis, hydroxyproline assay and immunohistochemistry for α-smooth muscle actin were performed as described in the Example 1 section.

[5] = tested on: Tsk-1 mice; assay: Tight skin (Tsk-1) mouse model of systemic sclerosis (Example C); format: in vivo; settings: result in words; TSK mice with established fibrosis before start of treatment
Method: In addition to the mouse model of bleomycin-induced dermal fibrosis, the tight-skin (Tsk-1) mouse model of systemic sclerosis was used to evaluate the anti-fibrotic potential of test drugs. Due to a dominant mutation in fibrillin-1, the phenotype of Tsk-1 is characterized by an increased hypodermal thickness. Genotyping of Tsk-1 mice was performed by PCR with the following primers: mutated fibrillin-1/Tsk-1 forward primer: 5′-[…]-3′, reverse primer: 5′-[…]-3′. Tsk-1 mice were treated daily with test drug or vehicle, respectively, by oral gavage. In addition, a group of corresponding wild type(pa/pa) mice was treated with vehicle. The treatment was started at an age of five weeks. After five weeks of treatment, mice were sacrificed by cervical dislocation and skin samples were obtained for analysis.
as §1

[6] = tested on: human dermal fibroblasts; assay: TGFbeta-induced collagen gene expression and hydroxyproline deposition in human dermal fibroblasts (Example E); format: cell-based; settings: result in words; human dermal fibroblasts in vitro
Method: The effects of the compound of formula 27 and vardenafil as stand alone and in combination were analyzed in vitro in human dermal fibroblasts in vitro.

SMILES | Collagen content ([1]; 1 mg/kg) [x-fold change] | Myofibroblast count ([1]; 1 mg/kg) [x-fold change] | Dermal thickness ([1]; 1 mg/kg) [x-fold change] | dermal thickness, hydroxyproline content of the skin and the number of dermal myofibroblasts [1] | haemodynamic profile (blood pressure and heart rate) [2] | other results
COC(=O)N(C)c1c(N)nc(-c2nn(Cc3ccccc3F)c3ncccc23)nc1N [compound of formula 3, Methyl-4,6-diamino-2-[1-(2-fluorobenzyl)-1H-pyrazolo[3,4-b]pyridine-3-yl]-5-pyrimidinyl-(methyl)carbamate] | 1.38 | 2.55 | 1.38 | significantly reduced; also recorded: dose dependent and significant effects | did not or only moderately, change | –
COC(=O)Nc1c(N)nc(-c2nn(Cc3ccccc3F)c3ncccc23)nc1N [compound of formula 4, Methyl-4,6-diamino-2-[1-(2-fluorobenzyl)-1H-pyrazolo[3,4-b]pyridine-3-yl]-5-pyrimidinyl-carbamate] | – | – | – | – | did not or only moderately, change | –
COC(=O)Nc1c(N)nc(-c2nn(Cc3ccccc3F)c3ncc(F)cc23)nc1N [compound of formula 6, Methyl-{4,6-diamino-2-[5-fluoro-1-(2-fluorobenzyl)-1H-pyrazolo[3,4-b]pyridine-3-yl]pyrimidine-5-yl}carbamate] | 1.28 | 2.05 | 1.24 | significantly reduced; also recorded: dose dependent and significant effects | – | Collagen content ([1]; 3 mg/kg): 1.20 x-fold change; Myofibroblast count ([1]; 3 mg/kg): 1.49 x-fold change; Dermal thickness ([1]; 3 mg/kg): 1.19 x-fold change; Collagen content ([3]; bleomycin + vehicle 1.56): 1.41 x-fold change; Myofibroblast count ([3]; bleomycin + vehicle 3.86): 3.13 x-fold change; Dermal thickness ([3]; vs vehicle-treated control, bleomycin + vehicle 1.71): 1.41 x-fold change
COC(=O)N(C)c1c(N)nc(-c2nn(Cc3ccccc3F)c3ncc(F)cc23)nc1N | – | – | – | – | did not or only moderately, change | –
Nc1nc(-c2nn(Cc3ccccc3F)c3ncccc23)ncc1C1CC1 [compound of formula 27, 3-(4-Amino-5-cyclopropylpyrimidin-2-yl)-1-(2-fluorobenzyl)-1H-pyrazolo[3,4-b]pyridine] | – | – | – | significantly reduced | did not or only moderately, change | dermal thickness, hydroxyproline content of the skin and the number of dermal myofibroblasts [4]: significantly reduced; dermal thickness, hydroxyproline content of the skin and the number of dermal myofibroblasts [5]: significantly reduced; TGFbeta-induced Collagen gene expression [6]: significantly blocked; TGFbeta-induced Hydroxyproline (HP) deposition [6]: significantly blocked
